Measured values as given in US20250368627A1, “PYRAZOLESULFONAMIDES AS ANTITUMOR AGENTS” (Peloton Therapeutics, Inc., a fully owned subsidiary of …, priority 2019, published 2025).

Columns and labels:
[1] = system: HCT116 human colorectal carcinoma cells; assay: CellTiter-Glo Luminescent Cell Viability Assay; format: cell-based; settings: HCT-116, 72 h, 3 days
Outline: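 CellTiter-Glo luminescence gave viability after 3 days of compound exposure in HCT116 cells grown in DMEM/10% FBS. Final concentrations ran from 5 to 0.0002 […] in 1:3 steps, each in triplicate, with IC50 derived from the curves.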

[2] = target: T1, DDB1DB/DCAF15 and RBM39 R1R2 complex (Homo sapiens, UniProt Q14498+Q66K64); assay: DCAF15 RBM39 Complex Formation Assay (FRET); format: binding; settings: FRET ratio Em 665/Em 615, incubated overnight at 4° C.
T1 construct: Amino acids 150 to 331 of RBM39 were cloned into pGEX4T3; GST (from vector pGEX4T3); TEV cleavage site (N); made in house; host or cells: DDB1DB/His-DCAF15: baculovirus/Sf9 co-expression; RBM39 R1R2: E. coli (pGEX4T3)
T1 sequence (Q66K64 whole entry, the tested form may be a part): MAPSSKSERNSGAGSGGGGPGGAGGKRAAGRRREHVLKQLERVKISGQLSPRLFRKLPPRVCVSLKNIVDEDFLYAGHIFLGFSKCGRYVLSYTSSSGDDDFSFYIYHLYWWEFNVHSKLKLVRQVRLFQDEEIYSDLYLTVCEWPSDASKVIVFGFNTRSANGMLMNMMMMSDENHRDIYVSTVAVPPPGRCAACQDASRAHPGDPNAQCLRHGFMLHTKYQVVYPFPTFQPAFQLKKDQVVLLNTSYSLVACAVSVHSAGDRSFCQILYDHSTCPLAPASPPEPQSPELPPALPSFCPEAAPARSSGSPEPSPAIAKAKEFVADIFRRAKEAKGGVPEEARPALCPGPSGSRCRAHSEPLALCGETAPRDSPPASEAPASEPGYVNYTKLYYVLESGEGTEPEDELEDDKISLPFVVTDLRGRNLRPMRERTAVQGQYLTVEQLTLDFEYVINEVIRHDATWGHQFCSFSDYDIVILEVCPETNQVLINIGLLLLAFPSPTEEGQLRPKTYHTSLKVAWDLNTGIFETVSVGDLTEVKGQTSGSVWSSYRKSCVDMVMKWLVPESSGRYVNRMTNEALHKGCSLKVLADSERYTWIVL
T1 sequence (Q14498 150-331): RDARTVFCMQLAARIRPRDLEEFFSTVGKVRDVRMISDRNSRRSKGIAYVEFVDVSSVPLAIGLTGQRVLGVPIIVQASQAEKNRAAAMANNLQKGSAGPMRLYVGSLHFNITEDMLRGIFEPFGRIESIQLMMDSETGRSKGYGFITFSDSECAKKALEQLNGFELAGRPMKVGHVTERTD
T1 sequence (Q16531 with tags, fused parts or gaps DEL396-708 partner): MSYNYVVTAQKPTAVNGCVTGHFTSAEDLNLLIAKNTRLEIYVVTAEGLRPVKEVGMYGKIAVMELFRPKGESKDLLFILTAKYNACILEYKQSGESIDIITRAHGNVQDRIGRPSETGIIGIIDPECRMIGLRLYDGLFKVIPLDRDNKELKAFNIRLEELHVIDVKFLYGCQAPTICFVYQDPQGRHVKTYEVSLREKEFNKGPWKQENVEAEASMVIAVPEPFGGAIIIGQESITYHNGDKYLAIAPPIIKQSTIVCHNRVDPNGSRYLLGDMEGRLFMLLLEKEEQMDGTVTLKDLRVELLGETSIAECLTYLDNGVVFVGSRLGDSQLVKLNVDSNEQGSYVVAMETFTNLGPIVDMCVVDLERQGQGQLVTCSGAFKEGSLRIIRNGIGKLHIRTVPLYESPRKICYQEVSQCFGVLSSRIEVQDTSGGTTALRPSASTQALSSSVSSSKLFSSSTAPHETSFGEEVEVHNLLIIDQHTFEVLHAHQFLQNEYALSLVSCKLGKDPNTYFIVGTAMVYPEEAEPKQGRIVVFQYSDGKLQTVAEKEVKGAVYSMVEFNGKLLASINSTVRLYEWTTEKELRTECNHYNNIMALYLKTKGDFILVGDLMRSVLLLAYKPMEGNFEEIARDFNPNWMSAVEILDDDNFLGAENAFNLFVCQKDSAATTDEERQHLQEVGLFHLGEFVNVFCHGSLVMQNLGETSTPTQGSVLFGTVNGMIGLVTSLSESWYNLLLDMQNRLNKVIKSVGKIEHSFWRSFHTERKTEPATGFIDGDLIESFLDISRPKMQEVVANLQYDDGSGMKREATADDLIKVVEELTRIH
Outline: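 Ternary complex formation read by TR-FRET (Em 665/615, excitation 340 nm) after overnight incubation at 4° C of 20 nM baculovirus DDB1DB/His-DCAF15 and 50 nM E. coli RBM39 RRM1-RRM2 FLAG fragment with 14-point, 3-fold compound dilutions from 1 μM; EC50 from 4-parameter fit.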

Structure (SMILES): CC1(n2cc(S(=O)(=O)Nc3ccc(Cl)c4c(C#N)c[nH]c34)cn2)COC1 [Compound 118, N-(4-chloro-3-cyano-1H-indol-7-yl)-1-(3-methyloxetan-3-yl)pyrazole-4-sulfonamide]
- EC50 [1]: < 250 nM
- IC50 [2]: < 250 nM

Structure (SMILES): Cc1ccc(NS(=O)(=O)c2cnn([C@H](C)CF)c2)c2[nH]cc(C#N)c12 [Compound 281, N-(3-cyano-4-methyl-1H-indol-7-yl)-1-[(1R)-2-fluoro-1-methyl-ethyl]pyrazole-4-sulfonamide]
- EC50 [1]: < 250 nM
- IC50 [2]: < 250 nM

Structure (SMILES): CC(C)(O)Cn1ncc(S(=O)(=O)Nc2ccc(Cl)c3c(C#N)c[nH]c23)c1F [Compound 188, N-(4-chloro-3-cyano-1H-indol-7-yl)-5-fluoro-1-(2-hydroxy-2-methyl-propyl)pyrazole-4-sulfonamide]
- EC50 [1]: 250 to 1000 nM
- IC50 [2]: < 250 nM

Structure (SMILES): N#Cc1c[nH]c2c(NS(=O)(=O)c3cnn(C45CC(C4)C5)c3)ccc(F)c12 [Compound 219, 1-(3-bicyclo[1.1.1]pentanyl)-N-(3-cyano-4-fluoro-1H-indol-7-yl)pyrazole-4-sulfonamide]
- EC50 [1]: 250 to 1000 nM
- IC50 [2]: < 250 nM

Structure (SMILES): Cc1ccc(NS(=O)(=O)c2cnn(C)c2N)c2[nH]nc(C#N)c12 [Compound 304, 5-amino-N-(3-cyano-4-methyl-1H-indazol-7-yl)-1-methyl-pyrazol-4-sulfonamide]
- EC50 [1]: < 250 nM
- IC50 [2]: < 250 nM

Structure (SMILES): Cc1ccc(NS(=O)(=O)c2cnn(CC(F)F)c2)c2[nH]cc(C#N)c12 [Compound 66, N-(3-cyano-4-methyl-1H-indol-7-yl)-1-(2,2-difluoroethyl)pyrazole-4-sulfonamide]
- EC50 [1]: < 250 nM
- IC50 [2]: < 250 nM

Structure (SMILES): N#Cc1c[nH]c2c(NS(=O)(=O)c3cnn(C(F)F)c3)ccc(F)c12 [Compound 215, N-(3-cyano-4-fluoro-1H-indol-7-yl)-1-(difluoromethyl)pyrazole-4-sulfonamide]
- EC50 [1]: 250 to 1000 nM
- IC50 [2]: < 250 nM

Structure (SMILES): Cc1ccc(NS(=O)(=O)c2cnn(C(C)(C)CO)c2)c2[nH]cc(C#N)c12 [Compound 198, N-(3-cyano-4-methyl-1H-indol-7-yl)-1-(2-hydroxy-1,1-dimethyl-ethyl)pyrazole-4-sulfonamide]
- EC50 [1]: < 250 nM
- IC50 [2]: < 250 nM

Structure (SMILES): Cc1ccc(NS(=O)(=O)c2cnn(C3COC3)c2F)c2[nH]cc(C#N)c12 [Compound 144, N-(3-cyano-4-methyl-1H-indol-7-yl)-5-fluoro-1-(oxetan-3-yl)pyrazole-4-sulfonamide]
- EC50 [1]: 250 to 1000 nM
- IC50 [2]: < 250 nM

Structure (SMILES): Cc1ccc(NS(=O)(=O)c2cnn(C)c2F)c2[nH]cc(C#N)c12 [Compound 112, N-(3-cyano-4-methyl-1H-indol-7-yl)-5-fluoro-1-methyl-pyrazole-4-sulfonamide]
- EC50 [1]: 250 to 1000 nM
- IC50 [2]: < 250 nM

Structure (SMILES): Cc1ccc(NS(=O)(=O)c2cnn([C@H](C)[C@H](C)O)c2)c2[nH]cc(C#N)c12 [Compound 274, N-(3-cyano-4-methyl-1H-indol-7-yl)-1-[(1R,2S)-2-hydroxy-1-methyl-propyl]pyrazole-4-sulfonamide]
- EC50 [1]: < 250 nM
- IC50 [2]: < 250 nM

Structure (SMILES): COCCn1cc(S(=O)(=O)Nc2cccc3c(Cl)c[nH]c23)cn1 [Compound 49, N-(3-chloro-1H-indol-7-yl)-1-(2-methoxyethyl)pyrazole-4-sulfonamide]
- EC50 [1]: 250 to 1000 nM
- IC50 [2]: < 250 nM

Structure (SMILES): Cc1ccc(NS(=O)(=O)c2cnn([C@@H](C)[C@@H](C)O)c2)c2[nH]cc(C#N)c12 [Compound 234, N-(3-cyano-4-methyl-1H-indol-7-yl)-1-[(1S,2R)-2-hydroxy-1-methyl-propyl]pyrazole-4-sulfonamide]
- EC50 [1]: < 250 nM
- IC50 [2]: < 250 nM

Structure (SMILES): N#Cc1c[nH]c2c(NS(=O)(=O)c3cnn(C4(CO)COC4)c3)ccc(Cl)c12 [Compound 165, N-(4-chloro-3-cyano-1H-indol-7-yl)-1-[3-(hydroxymethyl)oxetan-3-yl]pyrazole-4-sulfonamide]
- EC50 [1]: 250 to 1000 nM
- IC50 [2]: < 250 nM

Structure (SMILES): CC(C)(C)OC(=O)NCCn1cc(S(=O)(=O)Nc2cccc3c(Cl)c[nH]c23)cn1 [Compound 33, tert-butyl N-[2-[4-[(3-chloro-1H-indol-7-yl)sulfamoyl]pyrazol-1-yl]ethyl]carbamate]
- EC50 [1]: > 1000 nM
- IC50 [2]: 250 to 1000 nM

Structure (SMILES): Cn1cc(S(=O)(=O)Nc2ccc(Cl)c3c(C#N)c[nH]c23)cn1 [Compound 82, N-(4-chloro-3-cyano-1H-indol-7-yl)-1-methyl-pyrazole-4-sulfonamide]
- EC50 [1]: < 250 nM
- IC50 [2]: < 250 nM

Structure (SMILES): N#Cc1cc(C(F)(F)F)ccc1-n1cc(S(=O)(=O)Nc2cccc3c(Cl)c[nH]c23)cn1 [Compound 22, N-(3-chloro-1H-indol-7-yl)-1-[2-cyano-4-(trifluoromethyl)phenyl]pyrazole-4-sulfonamide]
- EC50 [1]: > 1000 nM
- IC50 [2]: > 1000 nM

Structure (SMILES): CS(=O)(=O)Cn1cc(S(=O)(=O)Nc2ccc(Cl)c3c(Cl)c[nH]c23)cn1 [Compound 181, N-(3,4-dichloro-1H-indol-7-yl)-1-(methylsulfonylmethyl)pyrazole-4-sulfonamide]
- EC50 [1]: < 250 nM
- IC50 [2]: < 250 nM

Structure (SMILES): CC(=O)N1CC(n2cc(S(=O)(=O)Nc3cccc4c(Cl)c[nH]c34)cn2)C1 [Compound 27, 1-(1-acetylazetidin-3-yl)-N-(3-chloro-1H-indol-7-yl)pyrazole-4-sulfonamide]
- EC50 [1]: > 1000 nM
- IC50 [2]: < 250 nM

Structure (SMILES): Cc1ccc(NS(=O)(=O)c2cnn([C@H](C)[C@@H](C)O)c2)c2[nH]cc(C#N)c12 [Compound 287, N-(3-cyano-4-methyl-1H-indol-7-yl)-1-[(1R,2R)-2-hydroxy-1-methyl-propyl]pyrazole-4-sulfonamide]
- EC50 [1]: < 250 nM
- IC50 [2]: < 250 nM

Structure (SMILES): Cc1ccc(NS(=O)(=O)c2cnn(C)c2C(F)F)c2[nH]cc(C#N)c12 [Compound 149, N-(3-cyano-4-methyl-1H-indol-7-yl)-5-(difluoromethyl)-1-methyl-pyrazole-4-sulfonamide]
- EC50 [1]: 250 to 1000 nM
- IC50 [2]: < 250 nM

Structure (SMILES): Cc1ccc(NS(=O)(=O)c2cnn(C3CCOC3)c2)c2[nH]cc(C#N)c12 (centres unmarked) [Compound 29, N-(3-cyano-4-methyl-1H-indol-7-yl)-1-tetrahydrofuran-3-yl-pyrazole-4-sulfonamide]
- EC50 [1]: 250 to 1000 nM
- IC50 [2]: < 250 nM

Structure (SMILES): O=S(=O)(Nc1ccc(Cl)c2c(Cl)c[nH]c12)c1cn[nH]c1 [Compound 159, N-(3,4-dichloro-1H-indol-7-yl)-1H-pyrazole-4-sulfonamide]
- EC50 [1]: < 250 nM
- IC50 [2]: < 250 nM

Structure (SMILES): N#Cc1c[nH]c2c(NS(=O)(=O)c3cnn(CC4(O)CCOCC4)c3)ccc(Cl)c12 [Compound 184, N-(4-chloro-3-cyano-1H-indol-7-yl)-1-[(4-hydroxytetrahydropyran-4-yl)methyl]pyrazole-4-sulfonamide]
- EC50 [1]: > 1000 nM
- IC50 [2]: < 250 nM

Structure (SMILES): CC(C)(CCO)n1cc(S(=O)(=O)Nc2ccc(Cl)c3c(C#N)c[nH]c23)cn1 [Compound 230, N-(4-chloro-3-cyano-1H-indol-7-yl)-1-(3-hydroxy-1,1-dimethyl-propyl)pyrazole-4-sulfonamide]
- EC50 [1]: < 250 nM
- IC50 [2]: < 250 nM

Structure (SMILES): N#Cc1c[nH]c2c(NS(=O)(=O)c3cnn(CC4(C#N)CC4)c3)ccc(Cl)c12 [Compound 183, N-(4-chloro-3-cyano-1H-indol-7-yl)-1-[(1-cyanocyclopropyl)methyl]pyrazole-4-sulfonamide]
- EC50 [1]: 250 to 1000 nM
- IC50 [2]: < 250 nM

Structure (SMILES): O=S(=O)(Nc1cccc2c(Cl)c[nH]c12)c1cnn(C(F)F)c1 [Compound 6, N-(3-chloro-1H-indol-7-yl)-1-(difluoromethyl)pyrazole-4-sulfonamide]
- EC50 [1]: 250 to 1000 nM
- IC50 [2]: < 250 nM

Structure (SMILES): Cc1ccc(NS(=O)(=O)c2cnn(CC(=O)N3C[C@@H](F)[C@@H](F)C3)c2)c2[nH]cc(C#N)c12 [Compound 138, N-(3-cyano-4-methyl-1H-indol-7-yl)-1-[2-[(3R,4S)-3,4-difluoropyrrolidin-1-yl]-2-oxo-ethyl]pyrazole-4-sulfonamide]
- EC50 [1]: > 1000 nM
- IC50 [2]: < 250 nM

Structure (SMILES): Cn1ncc(S(=O)(=O)Nc2ccc(Cl)c3c(C#N)n[nH]c23)c1N [Compound 307, 5-amino-N-(4-chloro-3-cyano-1H-indazol-7-yl)-1-methyl-pyrazole-4-sulfonamide]
- EC50 [1]: > 1000 nM
- IC50 [2]: < 250 nM

Structure (SMILES): Cc1ccc(NS(=O)(=O)c2cnn(Cc3ccccc3)c2)c2[nH]cc(C#N)c12 [Compound 89, 1-benzyl-N-(3-cyano-4-methyl-1H-indol-7-yl)pyrazole-4-sulfonamide]
- EC50 [1]: 250 to 1000 nM
- IC50 [2]: < 250 nM

Structure (SMILES): O=S(=O)(Nc1cccc2c(Cl)c[nH]c12)c1cnn(C2CCC2)c1 [Compound 47, N-(3-chloro-1H-indol-7-yl)-1-cyclobutyl-pyrazole-4-sulfonamide]
- EC50 [1]: 250 to 1000 nM
- IC50 [2]: < 250 nM

Structure (SMILES): N#Cc1c[nH]c2c(NS(=O)(=O)c3cnn(C(F)F)c3)ccc(Cl)c12 [Compound 119, N-(4-chloro-3-cyano-1H-indol-7-yl)-1-(difluoromethyl)pyrazole-4-sulfonamide]
- EC50 [1]: < 250 nM
- IC50 [2]: < 250 nM

Structure (SMILES): COC(=O)C(C)(C)n1cc(S(=O)(=O)Nc2ccc(Cl)c3c(Cl)c[nH]c23)cn1 [Compound 168, methyl 2-[4-[3,4-dichloro-1H-indol-7-yl)sulfamoyl]pyrazol-1-yl]-2-methyl-propanoate]
- EC50 [1]: 250 to 1000 nM
- IC50 [2]: < 250 nM

Structure (SMILES): C[C@H](C(N)=O)n1cc(S(=O)(=O)Nc2ccc(Cl)c3c(C#N)c[nH]c23)cn1 [Compound 213, (2R)-2-[4-[(4-chloro-3-cyano-1H-indol-7-yl)sulfamoyl]pyrazol-1-yl]propanamide]
- EC50 [1]: 250 to 1000 nM
- IC50 [2]: < 250 nM
